Test results as given in PMC6874179, “Development of Macrocycle Kinase Inhibitors for ALK2 Using Fibrodysplasia Ossificans Progressiva‐Derived Endothelial Cells” (JBMR Plus, 2019).

What was measured:
Assay in all cases: Proqinase Kinase profiling
Type in all cases: biochemical
Conditions in all cases: read-out: % inhibition at 100nM
[1] = target: T1, TLK1 (Homo sapiens, UniProt Q9UKI8)
T1 construct: purchased DiscoverX

[2] = target: T2, KIT_A829P (Homo sapiens, UniProt P10721, A829P)
T2 construct: purchased DiscoverX

[3] = target: T3, CHUK (Homo sapiens, UniProt O15111)
T3 construct: purchased DiscoverX

[4] = target: T4, KIT_D816V (Homo sapiens, UniProt P10721, D816V)
T4 construct: purchased DiscoverX

[5] = target: T5, PAK3 (Homo sapiens, UniProt O75914)
T5 construct: purchased DiscoverX

[6] = target: T6, NEK7 (Homo sapiens, UniProt Q8TDX7)
T6 construct: purchased DiscoverX

[7] = target: T7, TNK2 (Homo sapiens, UniProt Q07912)
T7 construct: purchased DiscoverX

[8] = target: T8, IGF1R (Homo sapiens, UniProt P08069)
T8 construct: purchased DiscoverX
T8 sequence (P08069 31-1367): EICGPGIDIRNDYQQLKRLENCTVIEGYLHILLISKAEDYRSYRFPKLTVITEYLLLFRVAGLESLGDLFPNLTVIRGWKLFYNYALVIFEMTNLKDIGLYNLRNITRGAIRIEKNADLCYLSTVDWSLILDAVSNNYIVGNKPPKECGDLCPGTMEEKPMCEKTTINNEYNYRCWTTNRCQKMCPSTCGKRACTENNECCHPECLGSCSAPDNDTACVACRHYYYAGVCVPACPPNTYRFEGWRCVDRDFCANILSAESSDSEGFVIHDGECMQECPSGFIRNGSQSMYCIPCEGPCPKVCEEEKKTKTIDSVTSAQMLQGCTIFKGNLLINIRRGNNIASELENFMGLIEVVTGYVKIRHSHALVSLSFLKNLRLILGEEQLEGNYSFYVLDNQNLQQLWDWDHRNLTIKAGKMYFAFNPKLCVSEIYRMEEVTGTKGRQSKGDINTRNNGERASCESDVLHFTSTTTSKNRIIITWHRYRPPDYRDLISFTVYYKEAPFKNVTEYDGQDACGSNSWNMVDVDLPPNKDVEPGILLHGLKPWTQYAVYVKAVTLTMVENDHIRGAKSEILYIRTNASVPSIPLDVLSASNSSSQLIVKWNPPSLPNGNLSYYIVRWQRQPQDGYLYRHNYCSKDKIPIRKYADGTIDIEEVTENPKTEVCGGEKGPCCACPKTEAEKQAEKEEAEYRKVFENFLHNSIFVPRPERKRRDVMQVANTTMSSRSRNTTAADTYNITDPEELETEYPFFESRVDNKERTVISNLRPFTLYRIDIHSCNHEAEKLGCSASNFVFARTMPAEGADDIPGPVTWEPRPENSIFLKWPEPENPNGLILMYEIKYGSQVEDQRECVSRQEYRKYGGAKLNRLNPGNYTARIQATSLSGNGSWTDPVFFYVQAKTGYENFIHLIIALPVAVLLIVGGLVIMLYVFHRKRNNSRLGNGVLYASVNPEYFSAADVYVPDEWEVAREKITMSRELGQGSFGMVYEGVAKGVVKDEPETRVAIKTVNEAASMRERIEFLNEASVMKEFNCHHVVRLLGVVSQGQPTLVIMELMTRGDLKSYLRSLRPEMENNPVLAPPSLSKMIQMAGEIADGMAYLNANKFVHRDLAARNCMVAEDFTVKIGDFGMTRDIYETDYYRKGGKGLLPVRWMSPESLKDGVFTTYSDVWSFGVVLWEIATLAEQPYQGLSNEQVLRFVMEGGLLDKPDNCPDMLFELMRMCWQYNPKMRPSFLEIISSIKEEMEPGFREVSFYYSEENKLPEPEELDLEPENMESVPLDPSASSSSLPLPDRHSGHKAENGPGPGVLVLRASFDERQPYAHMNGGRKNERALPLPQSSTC

[9] = target: T9, ROCK2 (Homo sapiens, UniProt O75116)
T9 construct: purchased DiscoverX

[10] = target: T10, KIT_V559D (Homo sapiens, UniProt P10721, V559D)
T10 construct: purchased DiscoverX

[11] = target: T11, ZAP70 (Homo sapiens, UniProt P43403)
T11 construct: purchased DiscoverX

[12] = target: T12, NTRK1 (Homo sapiens, UniProt P04629)
T12 construct: purchased DiscoverX

[13] = target: T13, EPHB2 (Homo sapiens, UniProt P29323)
T13 construct: purchased DiscoverX

[14] = target: T14, PRKD3 (Homo sapiens, UniProt O94806)
T14 construct: purchased DiscoverX

[15] = target: T15, TGFBR2 (Homo sapiens, UniProt P37173)
T15 construct: purchased DiscoverX

[16] = target: T16, MAPK15 (Homo sapiens, UniProt Q8TD08)
T16 construct: purchased DiscoverX
T16 sequence (Q8TD08 whole entry): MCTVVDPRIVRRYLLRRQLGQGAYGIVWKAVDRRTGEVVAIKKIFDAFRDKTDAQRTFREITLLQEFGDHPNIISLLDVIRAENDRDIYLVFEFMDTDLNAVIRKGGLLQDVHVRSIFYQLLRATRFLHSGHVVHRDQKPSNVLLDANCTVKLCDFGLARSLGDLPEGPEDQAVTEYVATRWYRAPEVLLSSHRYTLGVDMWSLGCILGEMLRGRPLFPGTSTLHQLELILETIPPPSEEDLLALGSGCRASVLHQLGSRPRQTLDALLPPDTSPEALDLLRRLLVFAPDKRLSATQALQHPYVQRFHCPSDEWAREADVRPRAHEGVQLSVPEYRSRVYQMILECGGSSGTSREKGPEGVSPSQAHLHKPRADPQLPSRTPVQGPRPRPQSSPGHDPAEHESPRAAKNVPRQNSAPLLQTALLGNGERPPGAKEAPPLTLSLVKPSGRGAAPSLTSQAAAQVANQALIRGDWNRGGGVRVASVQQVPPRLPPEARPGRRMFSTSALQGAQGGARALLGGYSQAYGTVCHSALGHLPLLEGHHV

[17] = target: T17, BRAF_V600E (Homo sapiens, UniProt P15056, V600E)
T17 construct: purchased DiscoverX
T17 sequence (P15056 whole entry V600E): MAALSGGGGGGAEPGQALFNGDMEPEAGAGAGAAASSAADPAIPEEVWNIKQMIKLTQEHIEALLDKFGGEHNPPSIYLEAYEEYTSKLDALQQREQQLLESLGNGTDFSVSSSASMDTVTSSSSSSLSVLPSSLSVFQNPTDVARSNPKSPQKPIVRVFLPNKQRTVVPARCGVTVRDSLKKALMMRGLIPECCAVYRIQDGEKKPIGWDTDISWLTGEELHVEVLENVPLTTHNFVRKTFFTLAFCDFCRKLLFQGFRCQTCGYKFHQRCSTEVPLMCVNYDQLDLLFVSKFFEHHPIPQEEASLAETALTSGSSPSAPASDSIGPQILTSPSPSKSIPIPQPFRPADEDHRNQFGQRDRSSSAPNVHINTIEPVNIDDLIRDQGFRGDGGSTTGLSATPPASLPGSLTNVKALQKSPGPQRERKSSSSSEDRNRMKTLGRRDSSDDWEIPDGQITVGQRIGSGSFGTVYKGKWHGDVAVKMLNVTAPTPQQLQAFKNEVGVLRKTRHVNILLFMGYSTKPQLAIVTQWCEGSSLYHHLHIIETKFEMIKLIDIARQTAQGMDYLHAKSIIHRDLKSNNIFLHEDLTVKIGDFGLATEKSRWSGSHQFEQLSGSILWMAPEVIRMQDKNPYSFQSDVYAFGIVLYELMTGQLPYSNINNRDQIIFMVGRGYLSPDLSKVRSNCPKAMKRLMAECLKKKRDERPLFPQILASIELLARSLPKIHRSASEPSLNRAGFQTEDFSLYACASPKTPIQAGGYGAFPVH

[18] = target: T18, HIPK4 (Homo sapiens, UniProt Q8NE63)
T18 construct: purchased DiscoverX

[19] = target: T19, EGFR_E746-A750del (Homo sapiens, UniProt P00533, DEL746-750)
T19 construct: purchased DiscoverX

[20] = target: T20, RAF1 (Homo sapiens, UniProt P04049)
T20 construct: purchased DiscoverX

[21] = target: T21, ABL1_T351I (Homo sapiens, UniProt P00519, T315I)
T21 construct: purchased DiscoverX

[22] = target: T22, STK3 (Homo sapiens, UniProt Q13188)
T22 construct: purchased DiscoverX

[23] = target: T23, STK4 (Homo sapiens, UniProt Q13043)
T23 construct: purchased DiscoverX
T23 sequence (Q13043 whole entry): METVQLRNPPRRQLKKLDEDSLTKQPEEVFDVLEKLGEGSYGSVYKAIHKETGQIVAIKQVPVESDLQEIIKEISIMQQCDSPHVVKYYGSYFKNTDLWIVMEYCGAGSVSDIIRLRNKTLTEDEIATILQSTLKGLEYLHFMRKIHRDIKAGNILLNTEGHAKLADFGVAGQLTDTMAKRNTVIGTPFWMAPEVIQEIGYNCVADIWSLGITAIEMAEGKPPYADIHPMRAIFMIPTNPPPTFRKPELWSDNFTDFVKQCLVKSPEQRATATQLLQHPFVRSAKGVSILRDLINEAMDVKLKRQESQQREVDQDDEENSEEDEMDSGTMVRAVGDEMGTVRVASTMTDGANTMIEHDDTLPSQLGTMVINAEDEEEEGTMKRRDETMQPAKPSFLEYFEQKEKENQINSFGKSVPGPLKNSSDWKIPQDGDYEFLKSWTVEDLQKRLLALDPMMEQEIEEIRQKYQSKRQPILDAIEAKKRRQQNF

[24] = target: T24, MARK2 (Homo sapiens, UniProt Q7KZI7)
T24 construct: purchased DiscoverX

[25] = target: T25, FLT4 (Homo sapiens, UniProt P35916)
T25 construct: purchased DiscoverX

[26] = target: T26, AKT2 (Homo sapiens, UniProt P31751)
T26 construct: purchased DiscoverX
T26 sequence (P31751 whole entry): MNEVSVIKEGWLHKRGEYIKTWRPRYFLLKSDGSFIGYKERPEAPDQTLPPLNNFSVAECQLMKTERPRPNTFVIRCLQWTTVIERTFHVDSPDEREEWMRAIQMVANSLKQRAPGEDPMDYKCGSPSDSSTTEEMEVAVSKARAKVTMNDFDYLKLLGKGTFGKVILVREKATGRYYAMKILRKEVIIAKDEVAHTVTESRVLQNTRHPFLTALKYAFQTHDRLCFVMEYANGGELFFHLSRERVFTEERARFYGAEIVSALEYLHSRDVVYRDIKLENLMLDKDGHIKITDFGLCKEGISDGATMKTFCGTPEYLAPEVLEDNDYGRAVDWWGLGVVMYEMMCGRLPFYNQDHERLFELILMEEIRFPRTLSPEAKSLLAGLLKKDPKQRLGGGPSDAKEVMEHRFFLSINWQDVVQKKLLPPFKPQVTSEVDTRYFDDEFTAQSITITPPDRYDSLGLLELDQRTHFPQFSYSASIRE

[27] = target: T27, TBK1 (Homo sapiens, UniProt Q9UHD2)
T27 construct: purchased DiscoverX

[28] = target: T28, CAMKK1 (Homo sapiens, UniProt Q8N5S9)
T28 construct: purchased DiscoverX

[29] = target: T29, PIM2 (Homo sapiens, UniProt Q9P1W9)
T29 construct: purchased DiscoverX

[30] = target: T30, FGFR3_G697C (Homo sapiens, UniProt P22607, G697C)
T30 construct: purchased DiscoverX

[31] = target: T31, RET_V804M (Homo sapiens, UniProt P07949, V804M)
T31 construct: purchased DiscoverX

[32] = target: T32, RET_R749T (Homo sapiens, UniProt P07949, R749T)
T32 construct: purchased DiscoverX

[33] = target: T33, NEK9 (Homo sapiens, UniProt Q8TD19)
T33 construct: purchased DiscoverX

[34] = target: T34, MUSK (Homo sapiens, UniProt O15146)
T34 construct: purchased DiscoverX

[35] = target: T35, PRKCH (Homo sapiens, UniProt P24723)
T35 construct: purchased DiscoverX

[36] = target: T36, CDK8_cyclinC (Homo sapiens, UniProt P49336)
T36 construct: purchased DiscoverX

[37] = target: T37, RPS6KA1 (Homo sapiens, UniProt Q15418)
T37 construct: purchased DiscoverX

[38] = target: T38, MET_Y1230H (Homo sapiens, UniProt P08581, Y1230H)
T38 construct: purchased DiscoverX
T38 sequence (P08581 25-1390 Y1230H): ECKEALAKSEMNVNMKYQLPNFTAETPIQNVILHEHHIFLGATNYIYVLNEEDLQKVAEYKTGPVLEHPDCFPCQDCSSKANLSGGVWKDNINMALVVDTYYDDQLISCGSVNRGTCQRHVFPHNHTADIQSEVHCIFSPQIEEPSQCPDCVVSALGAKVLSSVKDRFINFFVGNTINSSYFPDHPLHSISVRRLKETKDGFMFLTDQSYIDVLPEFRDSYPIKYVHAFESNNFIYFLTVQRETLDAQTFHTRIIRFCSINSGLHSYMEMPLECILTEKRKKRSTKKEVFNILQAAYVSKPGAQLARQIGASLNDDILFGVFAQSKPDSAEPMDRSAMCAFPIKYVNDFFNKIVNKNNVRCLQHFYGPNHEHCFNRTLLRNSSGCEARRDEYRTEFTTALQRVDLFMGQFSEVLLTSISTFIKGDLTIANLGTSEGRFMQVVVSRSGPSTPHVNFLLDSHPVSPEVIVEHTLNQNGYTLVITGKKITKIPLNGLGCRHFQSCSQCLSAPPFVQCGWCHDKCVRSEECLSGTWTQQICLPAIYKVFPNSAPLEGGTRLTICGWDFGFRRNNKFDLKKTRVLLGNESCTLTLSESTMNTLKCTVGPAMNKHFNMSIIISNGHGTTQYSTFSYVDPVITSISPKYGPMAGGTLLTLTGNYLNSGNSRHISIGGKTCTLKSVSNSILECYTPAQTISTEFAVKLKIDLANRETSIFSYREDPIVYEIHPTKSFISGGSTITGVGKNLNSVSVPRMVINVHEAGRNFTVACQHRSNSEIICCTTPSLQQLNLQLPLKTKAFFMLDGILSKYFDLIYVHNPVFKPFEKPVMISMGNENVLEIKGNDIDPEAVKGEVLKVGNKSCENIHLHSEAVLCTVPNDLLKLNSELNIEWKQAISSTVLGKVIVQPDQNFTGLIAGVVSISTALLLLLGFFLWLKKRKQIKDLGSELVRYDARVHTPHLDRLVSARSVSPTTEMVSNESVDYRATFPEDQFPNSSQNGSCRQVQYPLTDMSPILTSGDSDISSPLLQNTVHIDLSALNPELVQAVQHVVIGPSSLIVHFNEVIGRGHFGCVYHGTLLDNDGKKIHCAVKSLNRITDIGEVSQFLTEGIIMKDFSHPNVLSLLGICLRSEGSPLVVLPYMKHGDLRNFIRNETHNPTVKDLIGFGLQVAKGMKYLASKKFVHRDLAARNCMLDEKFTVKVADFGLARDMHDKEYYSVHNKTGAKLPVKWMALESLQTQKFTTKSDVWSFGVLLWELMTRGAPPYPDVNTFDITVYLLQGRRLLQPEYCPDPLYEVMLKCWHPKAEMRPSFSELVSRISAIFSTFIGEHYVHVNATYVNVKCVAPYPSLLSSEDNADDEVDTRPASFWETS

[39] = target: T39, CSNK1G2 (Homo sapiens, UniProt P78368)
T39 construct: purchased DiscoverX

[40] = target: T40, SGK3 (Homo sapiens, UniProt Q96BR1)
T40 construct: purchased DiscoverX

[41] = target: T41, MAP2K6 (Homo sapiens, UniProt P52564)
T41 construct: purchased DiscoverX

[42] = target: T42, NEK6 (Homo sapiens, UniProt Q9HC98)
T42 construct: purchased DiscoverX

[43] = target: T43, SRPK2 (Homo sapiens, UniProt P78362)
T43 construct: purchased DiscoverX

Structure (SMILES): Clc1cc2cc(c1)-c1cnn3ccc(nc13)NCCOCCO2 [OD36]
- inhibition at 0.1 µM [1]: 17%
- inhibition at 0.1 µM [2]: 17%
- inhibition at 0.1 µM [3]: 20%
- inhibition at 0.1 µM [4]: 36%
- inhibition at 0.1 µM [5]: 1%
- inhibition at 0.1 µM [6]: 5%
- inhibition at 0.1 µM [7]: 17%
- inhibition at 0.1 µM [8]: 3%
- inhibition at 0.1 µM [9]: 7%
- inhibition at 0.1 µM [10]: 15%
- inhibition at 0.1 µM [11]: -3%
- inhibition at 0.1 µM [12]: 14%
- inhibition at 0.1 µM [13]: -2%
- inhibition at 0.1 µM [14]: 2%
- inhibition at 0.1 µM [15]: 68%
- inhibition at 0.1 µM [16]: 17%
- inhibition at 0.1 µM [17]: 10%
- inhibition at 0.1 µM [18]: 47%
- inhibition at 0.1 µM [19]: 9%
- inhibition at 0.1 µM [20]: 2%
- inhibition at 0.1 µM [21]: 9%
- inhibition at 0.1 µM [22]: 12%
- inhibition at 0.1 µM [23]: 11%
- inhibition at 0.1 µM [24]: 11%
- inhibition at 0.1 µM [25]: 44%
- inhibition at 0.1 µM [26]: 2%
- inhibition at 0.1 µM [27]: 11%
- inhibition at 0.1 µM [28]: 20%
- inhibition at 0.1 µM [29]: 17%
- inhibition at 0.1 µM [30]: -1%
- inhibition at 0.1 µM [31]: 5%
- inhibition at 0.1 µM [32]: 30%
- inhibition at 0.1 µM [33]: 1%
- inhibition at 0.1 µM [34]: -1%
- inhibition at 0.1 µM [35]: 5%
- inhibition at 0.1 µM [36]: 57%
- inhibition at 0.1 µM [37]: 9%
- inhibition at 0.1 µM [38]: -3%
- inhibition at 0.1 µM [39]: -3%
- inhibition at 0.1 µM [40]: 7%
- inhibition at 0.1 µM [41]: 1%
- inhibition at 0.1 µM [42]: -7%
- inhibition at 0.1 µM [43]: -2%

Structure (SMILES): Cc1cc2cc(c1)-c1cnn3ccc(nc13)NCCNC(=O)CCN(C)C2 [OD52]
- inhibition at 0.1 µM [1]: 16%
- inhibition at 0.1 µM [2]: -10%
- inhibition at 0.1 µM [3]: 0%
- inhibition at 0.1 µM [4]: -5%
- inhibition at 0.1 µM [5]: -15%
- inhibition at 0.1 µM [6]: 5%
- inhibition at 0.1 µM [7]: -20%
- inhibition at 0.1 µM [8]: -25%
- inhibition at 0.1 µM [9]: -9%
- inhibition at 0.1 µM [10]: -6%
- inhibition at 0.1 µM [11]: -13%
- inhibition at 0.1 µM [12]: 29%
- inhibition at 0.1 µM [13]: 15%
- inhibition at 0.1 µM [14]: 4%
- inhibition at 0.1 µM [15]: 0%
- inhibition at 0.1 µM [16]: -3%
- inhibition at 0.1 µM [17]: -1%
- inhibition at 0.1 µM [18]: 10%
- inhibition at 0.1 µM [19]: -11%
- inhibition at 0.1 µM [20]: -1%
- inhibition at 0.1 µM [21]: -15%
- inhibition at 0.1 µM [22]: 5%
- inhibition at 0.1 µM [23]: 8%
- inhibition at 0.1 µM [24]: -9%
- inhibition at 0.1 µM [25]: -13%
- inhibition at 0.1 µM [26]: -9%
- inhibition at 0.1 µM [27]: -1%
- inhibition at 0.1 µM [28]: -8%
- inhibition at 0.1 µM [29]: 4%
- inhibition at 0.1 µM [30]: -10%
- inhibition at 0.1 µM [31]: -6%
- inhibition at 0.1 µM [32]: 36%
- inhibition at 0.1 µM [33]: -1%
- inhibition at 0.1 µM [34]: -11%
- inhibition at 0.1 µM [35]: -20%
- inhibition at 0.1 µM [36]: 44%
- inhibition at 0.1 µM [37]: 10%
- inhibition at 0.1 µM [38]: -20%
- inhibition at 0.1 µM [39]: 4%
- inhibition at 0.1 µM [40]: 0%
- inhibition at 0.1 µM [41]: 6%
- inhibition at 0.1 µM [42]: -12%
- inhibition at 0.1 µM [43]: -16%
